Where “and” joins values, the source holds several entries; their conditions need not be identical. Equal entries are not always repeated.
Key:
H23 cells = assay: Navitoclax / A-1210477 combination cell viability, H23 cells; type: cell-based, human; details: H23, 48 h
Protocol: (§1) Figure 6 A-1210477 synergizes with navitoclax to kill hematological and solid tumor cell lines. BxPC-3, EJ-1, H23, and OPM-2 cells were treated with increasing concentrations of navitoclax in the presence or absence of increasing concentrations of A-1210477 for 48 h before assessing cell viability. All data points represent the means of triplicate experiments, with error bars indicating the S.E.M. TEXT PRINTED IN THE PICTURE: A-1210477 + navitoclax: Bliss sum (BxPC-3): 716; Bliss sum (EJ-1): 464; Bliss sum (H23): 76; Bliss sum (OPM-2): 946 DOUBTS OF THE COPYIST ABOUT THIS PICTURE: The Bliss sums apply to the combination of A-1210477 and navitoclax. The picture prints the two names separately (legend heading and axis title), not as one joined label.
(§2) Adherent cell lines were seeded at 50 000 cells per well in 96-well plates and treated for 48 h with compounds diluted in half-log steps starting at 30 μM and ending at 0.001 μM. Multiple myeloma cell lines were seeded at 15 000–20 000 cells per well and treated similarly. Effects on proliferation and viability were determined using CellTiter-Glo reagent from Promega (Madison, WI, USA) according to the manufacturer's instructions. IC50 values were determined by non-linear regression analysis of the concentration response data.

MCL-1 [1] = biological target: T1, MCL-1 (Homo sapiens, UniProt Q07820); set-up: endogenous in cells; host or cells: HCC-1806; method as in PMID 25679114; details: in the presence of 10% human serum; cited from earlier work
T1 sequence (Q07820 whole entry): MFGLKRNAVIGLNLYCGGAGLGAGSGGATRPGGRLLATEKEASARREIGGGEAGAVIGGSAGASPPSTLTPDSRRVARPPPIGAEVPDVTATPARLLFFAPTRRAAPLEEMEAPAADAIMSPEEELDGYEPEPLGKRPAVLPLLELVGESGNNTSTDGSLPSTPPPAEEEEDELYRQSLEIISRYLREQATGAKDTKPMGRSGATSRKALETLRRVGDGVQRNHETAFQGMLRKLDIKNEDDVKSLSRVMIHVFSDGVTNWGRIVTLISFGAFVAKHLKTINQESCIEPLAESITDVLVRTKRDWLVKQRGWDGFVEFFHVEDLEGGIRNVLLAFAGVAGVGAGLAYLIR

MCL-1 [2] = biological target: T1, MCL-1; assay: TR-FRET binding affinity assay, MCL-1
Protocol: TR-FRET-binding affinity assays were performed for BCL-2, BCL-XL, and MCL-1 in 4.52 mM monobasic potassium phosphate, 15.48 mM dibasic potassium phosphate, 1 mM sodium EDTA, 0.05% Pluronic F-68 detergent, 50 mM sodium chloride, and 1 mM DTT (pH 7.5) as described previously for BCL-XL.[6] For MCL-1 assays, GST-tagged MCL-1 (1 nM) was mixed with 100 nM f-Bak, 1 nM Tb-labeled anti-GST antibody, and compound at room temperature (RT) for 60 min. Fluorescence was measured on an Envision plate reader (Perkin-Elmer, Waltham, MA, USA) using a 340/35 nm excitation filter and 520/525 (f-Bak) and 495/510 nm (Tb-labeled anti-GST antibody) emission filters.

H929 cells = assay: Hallmarks of apoptosis in H929 cells (caspase-3/-7, mitochondrial membrane depolarization, phosphatidylserine); type: cell-based, human; details: H929, 4 h
Protocol: Figure 4 Indole-2-carboxylic acids induce the hallmarks of apoptosis in MCL-1-dependent cancer cell line H929. (a) Digitonin-permeabilized H929 cells were treated with 10 μM BH3 peptides for 4 h, and intact H929 cells were incubated with increasing concentrations (0.1–10 μM) of A-1208746 for 4 h before assessing the levels of cytochrome c released into the cytosol. (b) H929 and RS4;11 cells were incubated with increasing concentrations of MCL-1 inhibitors or the BCL-2-selective inhibitor ABT-199 (venetoclax) for 48 h before determining cell viability. Cell killing IC50s are plotted with each value representing the mean of three separate experiments. […]
H929 cells were cultured in RPMI 1640 (Invitrogen Corp., Grand Island, NY, USA) supplemented with 10% fetal bovine serum (Invitrogen), 1% sodium pyruvate, 25 mM HEPES, 4.5 g/l glucose, and 1% penicillin/streptomycin (Sigma) and maintained in a humidified chamber at 37 °C containing 5% CO2. […] Following treatment, the hallmarks of apoptosis (activation of caspase-3/-7, mitochondrial membrane depolarization, and phosphatidylserine externalization) were measured using the IntelliCyt (Albuquerque, NM, USA) MultiCyt 4-Plex Apoptosis Screening Kit according to the manufacturer's instructions and read by flow cytometry using a HTFC screening system (IntelliCyt). […] Data were expressed as the percentage of singlet cells. […]

OPM-2 cells = assay: Navitoclax / A-1210477 combination cell viability, OPM-2 cells; type: cell-based; details: OPM-2, 48 h
Protocol: as §1, §2

## Cc1nn(C)c(COc2ccc(N3CCN(S(=O)(=O)N(C)C)CC3)cc2)c1-c1cccc2c(CCCOc3cccc4ccccc34)c(C(=O)O)n(CCN3CCOCC3)c12 [A-1210477]
H23 cells
  potentiation of navitoclax: substantially shifted the dose–response curve of navitoclax
MCL-1 [1]
  shift in MCL-1 affinity: > 15 fold
MCL-1 [2]
  Ki: 0.4 to 0.5 nM and 0.454 nM
H929 cells
  induction of hallmarks of apoptosis (mitochondrial membrane depolarization, caspase-3/-7 activation, phosphatidylserine externalization): induced the hallmarks of apoptosis
OPM-2 cells
  potentiation of navitoclax: substantially shifted the dose–response curve of navitoclax
